Experimental data as given in patent US11053204B2, “Pyrimidinyloxy benzene derivatives as herbicides” (FMC Corporation, priority 2015, dated 2021).

Assays:
Assay in all cases: Test C postemergence, plant response rating
Type in all cases: in vivo
[1] = system: barnyardgrass (Echinochloa crus-galli); conditions: Echinochloa crus-galli, post-emergence
In short: (§1)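 Visual injury score, 0 = no effect, 100 = complete control, assigned against untreated controls after 13 to 15 d in the greenhouse. Compounds were applied in a surfactant-containing non-phytotoxic solvent mix, preemergence to seeded loam/sand or silt loam soil, or postemergence to 1- to 4-leaf plants (2 to 18 cm).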

[2] = system: blackgrass (Alopecurus myosuroides); conditions: Alopecurus myosuroides, post-emergence
In short: as §1

[3] = system: corn (Zea mays); conditions: Zea mays, post-emergence
In short: as §1

[4] = system: crabgrass, large (large crabgrass, Digitaria sanguinalis); conditions: Digitaria sanguinalis, post-emergence
In short: as §1

[5] = system: foxtail, giant (giant foxtail, Setaria faberii); conditions: Setaria faberi, post-emergence
In short: as §1

[6] = system: galium (catchweed bedstraw, Galium aparine); conditions: Galium, post-emergence
In short: as §1

[7] = system: lambsquarters (Chenopodium album); conditions: Chenopodium album, post-emergence
In short: as §1

[8] = system: nutsedge, yellow (yellow nutsedge, Cyperus esculentus); conditions: Cyperus, post-emergence
In short: as §1

[9] = system: oat, wild (wild oat Avena fatua); conditions: Avena fatua, post-emergence
In short: as §1

[10] = system: oilseed rape (Brassica napus); conditions: Brassica napus, post-emergence
In short: as §1

[11] = system: ragweed (common ragweed, Ambrosia elatior); conditions: Ambrosia artemisiifolia, post-emergence
In short: as §1

[12] = system: ryegrass, Italian (Italian ryegrass, Lolium multiflorum); conditions: Lolium multiflorum, post-emergence
In short: as §1

[13] = system: soybean (Glycine max); conditions: Glycine max, post-emergence
In short: as §1

[14] = system: velvetleaf (Abutilon theophrasti); conditions: Abutilon theophrasti, post-emergence
In short: as §1

[15] = system: waterhemp (common waterhemp, Amaranthus rudis); conditions: for Plant response rating, Waterhemp: scale 0 to 100; for Waterhemp plant response rating: scale 0 to 100 (0 no effect, 100 complete control)
In short: as §1

[16] = system: wheat (winter wheat, Triticum aestivum); conditions: Triticum aestivum, post-emergence
In short: as §1

[17] = 62 g ai/ha, scale 0 to 100 (0 no effect, 100 complete control)
[18] = 125 g ai/ha, scale 0 to 100 (0 no effect, 100 complete control)

SMILES: O=C(OCC(F)(F)C(F)(F)F)c1c(Br)cccc1Oc1ncc(Cl)cn1 [Compound 23, 2,2,3,3,3-pentafluoropropyl 2-bromo-6-[(5-chloro-2-pyrimidinyl)oxy]benzoate]
- pest or weed control at 16 g/ha ([1]; 16 g ai/ha, scale 0 to 100): 10%
- pest or weed control at 31 g/ha ([1]; 31 g ai/ha, scale 0 to 100): 10%
- pest or weed control at 62 g/ha [1, 17]: 10%
- pest or weed control at 125 g/ha [1, 18]: 20%
- pest or weed control at 16 g/ha ([2]; 16 g ai/ha, scale 0 to 100): 0%
- pest or weed control at 31 g/ha ([2]; 31 g ai/ha, scale 0 to 100): 5%
- pest or weed control at 62 g/ha [2, 17]: 15%
- pest or weed control at 125 g/ha [2, 18]: 20%
- Corn plant response rating (crop injury, 0 = no effect, 100 = complete kill) at 16 g/ha ([3]; 16 g ai/ha, scale 0 to 100): 5%
- Corn plant response rating (crop injury, 0 = no effect, 100 = complete kill) at 31 g/ha ([3]; 31 g ai/ha, scale 0 to 100): 5%
- plant injury at 62 g/ha [3, 17]: 5%
- plant injury at 125 g/ha [3, 18]: 10%
- pest or weed control at 16 g/ha ([4]; 16 g ai/ha, scale 0 to 100): 10%
- pest or weed control at 31 g/ha ([4]; 31 g ai/ha, scale 0 to 100): 10%
- pest or weed control at 62 g/ha [4, 17]: 20%
- pest or weed control at 125 g/ha [4, 18]: 25%
- pest or weed control at 16 g/ha ([5]; 16 g ai/ha, scale 0 to 100): 10%
- pest or weed control at 31 g/ha ([5]; 31 g ai/ha, scale 0 to 100): 35%
- pest or weed control at 62 g/ha [5, 17]: 25%
- pest or weed control at 125 g/ha [5, 18]: 30%
- pest or weed control at 16 g/ha ([6]; 16 g ai/ha, scale 0 to 100): 50%
- pest or weed control at 31 g/ha ([6]; 31 g ai/ha, scale 0 to 100): 55%
- pest or weed control at 62 g/ha [6, 17]: 55%
- pest or weed control at 125 g/ha [6, 18]: 80%
- pest or weed control at 16 g/ha ([7]; 16 g ai/ha, scale 0 to 100): 25%
- pest or weed control at 31 g/ha ([7]; 31 g ai/ha, scale 0 to 100): 55%
- pest or weed control at 62 g/ha [7, 17]: 65%
- pest or weed control at 125 g/ha [7, 18]: 80%
- pest or weed control at 16 g/ha ([8]; 16 g ai/ha, scale 0 to 100): 0%
- pest or weed control at 31 g/ha ([8]; 31 g ai/ha, scale 0 to 100): 0%
- pest or weed control at 62 g/ha [8, 17]: 5%
- pest or weed control at 125 g/ha [8, 18]: 10%
- pest or weed control at 16 g/ha ([9]; 16 g ai/ha, scale 0 to 100): 5%
- pest or weed control at 31 g/ha ([9]; 31 g ai/ha, scale 0 to 100): 5%
- pest or weed control at 62 g/ha [9, 17]: 10%
- pest or weed control at 125 g/ha [9, 18]: 5%
- plant injury at 16 g/ha ([10]; 16 g ai/ha, scale 0 to 100): 5%
- plant injury at 31 g/ha ([10]; 31 g ai/ha, scale 0 to 100): 5%
- plant injury at 62 g/ha [10, 17]: 50%
- plant injury at 125 g/ha [10, 18]: 35%
- pest or weed control at 16 g/ha ([11]; 16 g ai/ha, scale 0 to 100): 15%
- pest or weed control at 31 g/ha ([11]; 31 g ai/ha, scale 0 to 100): 35%
- pest or weed control at 62 g/ha [11, 17]: 40%
- pest or weed control at 125 g/ha [11, 18]: 50%
- pest or weed control at 16 g/ha ([12]; 16 g ai/ha, scale 0 to 100): 0%
- pest or weed control at 31 g/ha ([12]; 31 g ai/ha, scale 0 to 100): 0%
- pest or weed control at 62 g/ha [12, 17]: 5%
- pest or weed control at 125 g/ha [12, 18]: 5%
- plant injury at 16 g/ha ([13]; 16 g ai/ha, scale 0 to 100): 20%
- plant injury at 31 g/ha ([13]; 31 g ai/ha, scale 0 to 100): 30%
- plant injury at 62 g/ha [13, 17]: 70%
- plant injury at 125 g/ha [13, 18]: 35%
- pest or weed control at 16 g/ha ([14]; 16 g ai/ha, scale 0 to 100): 10%
- pest or weed control at 31 g/ha ([14]; 31 g ai/ha, scale 0 to 100): 35%
- pest or weed control at 62 g/ha ([14]; 62 g ai/ha, scale 0 to 100 (0 no effect, 100 complete control), read-out: Velvetleaf plant response rating): 35%
- pest or weed control at 125 g/ha [14, 18]: 40%
- Plant response rating, Waterhemp ([15]; 16 g ai/ha): 80
- Plant response rating, Waterhemp ([15]; 31 g ai/ha): 90
- Waterhemp plant response rating ([15]; 62 g ai/ha): 85
- Waterhemp plant response rating ([15]; 125 g ai/ha): 95
- plant injury at 16 g/ha ([16]; 16 g ai/ha, scale 0 to 100): 0%
- plant injury at 31 g/ha ([16]; 31 g ai/ha, scale 0 to 100): 0%
- plant injury at 62 g/ha ([16]; 62 g ai/ha, scale 0 to 100 (0 no effect, 100 complete control), read-out: Wheat plant response rating): 0%
- plant injury at 125 g/ha [16, 18]: 0%
